For test [1], the system named is hBD-2. Put plainly: Induction of hBD-2 in normal human keratinocytes, ELISA on cells related to MTT (Examples 3, 6, 7). Type of test: cell-based. As to conditions: for production of hBD-2 (in words): Example 7, tested separately, commercial origin; for Modulation of the synthesis of HBD-2 (% increase with respect to control cells): proportions corresponding to 1% of a 5% solution of MS of batch A, i.e. 0.05% MS. As for the experimental part:
The keratinocytes of normal humans were inoculated in a 96 well plaque (about 20000 cells/well), in the presence of a specific medium enriched in calcium (final concentration 1.3 mM), as previously described in the publication “Human β-Defensin-2 production in Keratinocytes is regulated by Interleukin-1, Bacteria, and the State of Differentiation”, Alice Y. Liu et al., The Society for Investigative Dermatology, vol. 118, No. 2, February 2002, pages 275 to 281.
After an incubation of 24 hours at 37° C., 5% CO2: • 2 rinses with 200 μl/well of PBS (phosphate buffer in saline solution) • stimulation of the cells by 200 μl/well (in a Ca^++ supplemented medium): • by the hydrosoluble extract of sugars of avocado at concentrations of 0.5, 0.05 and 0.005 w/w of dry matter • by IL-1β at a concentration of 100 ng/ml (positive control of induction of hBD-2) III. End of Treatment (J2): ELISA
After 24 hours of incubation, the induction of the hBD-2 was evaluated by an ELISA method with a specific antibody (goat polyclonal to human BD2; Abcam; ab9871). The results obtained with the hydrosoluble extract of sugars of avocado, batch A, comprising 40% of D-mannoheptulose and 40% perseitol, based on the dry weight, are summarised in Table 8 below:
The same test as in example 3 was carried out with: • a mixture of fructose (5%), glucose (5%) and saccharose (3%); • D-mannoheptulose (40%); • perseitol (40%); • a mixture of fructose (5%), glucose (5%) saccharose (3%) and D-mannoheptulose (40%); • a mixture of fructose (5%), glucose (5%) saccharose (3%) and perseitol (40%); • a mixture of fructose (5%), glucose (5%) saccharose (3%) D-mannoheptulose (40%) and perseitol (40%); and • an extract of avocado sugars (batch A).
The same test as in example 3 was carried out with commercially available D-mannoheptulose and perseitol.

The subject of test [2] is tumorous cells of Ehrlich ascites sarcoma. The conditions noted are these: perseitol associated with a potassium ion; cited from earlier work.
The test system of test [3] is hBD-2. Put plainly: Expression of hBD-2 modulated by IL-4 in keratinocytes, in vitro modelling of atopic dermatitis. Type of test: cell-based, human. How it is done:
The keratinocytes of normal humans were inoculated as described in example 3.
After 24 hours of incubation at 37° C., 5% of CO2, the culture medium was eliminated and the cellular carpet was rinsed twice with PBS. The cells were then treated for 24 hours under the conditions defined below: • Control cells: medium only • IL-1β at 100 ng/ml (positive control for induction of hBD-2) • IL-4 at 50 ng/ml • Hydrosoluble extract of sugars of avocado (batch A) at 0.5% w/w of dry matter • IL-1β at 100 ng/ml and IL-4 at 50 ng/ml • IL-4 at 50 ng/ml and hydrosoluble extract of sugars of avocado (batch A) at 0.05% w/w of dry matter • IL-1β at 100 ng/ml and IL-4 at 50 ng/ml and hydrosoluble extract of sugars of avocado (batch A) at 0.05% w/w of dry matter
At the end of the treatment, the induction of hBD-2 was evaluated by an ELISA method on cells; in parallel, in order to determine the total number of cells in each well, a test with MTT was run in parallel on the cells treated under the same conditions. Thus, for each condition, the OD450 hBD-2 was divided by the OD570 MTT to obtain the quantity of hBD-2 produced per living cell.

For another test, the system named is LL-37. As to the kind of experiment: Induction of LL-37 in KB epithelial cells, ELISA on cells related to MTT. As to conditions: 48 hours, 100 ng/ml. Type of test: cell-based, human. As for the experimental part:
(§1) The cells KB (ATCC CCL-17), line of epithelial cells from a human oral carcinoma, commonly used in studies of the buccal cavity, were inoculated in plaques of 96 wells and cultivated in RPMI 1640 (Roswell Park Memorial Institute Medium) with Glutamax™1 at 10% VFS (veal fœtal serum)+antibiotics.
(§2) After 24 hours of incubation, the culture medium was eliminated and the cellular carpet was rinsed twice with PBS.
(§3) The cells were then treated under the conditions defined above during 24 and 48 hours: • Control cells: medium only • TNFα (commercialised by Sigma) at 100 ng/ml • hydrosoluble extract of sugars of avocado (40% mannoheptulose/40% perseitol) at 0.005-0.05 and 0.5 w/w (of dry matter) (batch A) 3. End of Treatment • Analysis of the antimicrobial peptides by ELISA on cells
(§4) After 48 hours of incubation under the different treatment conditions, the β-defensins 2 and 3 and the LL-present in the cells KB were analysed by an ELISA method on cells.
(§5) In order to determine the total number of cells in each well, a test with MTT was run in parallel on the cells treated under the same conditions. • Utilisation of the results
(§6) For each condition of treatment, the OD450 AMPs (antimicrobial peptides) was divided by the OD570 MTT to calculate the quantity of AMPs produced per living cell.
(§7) The averages and the standard deviations were calculated for each condition and the induction of different AMPS was calculated as the percentage increase with respect to the control cells.
A general note: An ELISA detects its analyte on a solid surface through an enzyme-linked reagent.

In test [4] the test system is hBD-2. Put plainly: Induction of hBD-2 in KB epithelial cells, ELISA on cells related to MTT. Type of test: cell-based, human. The conditions noted are these: 48 hours, 100 ng/ml. How it is done: as §1, §2, §3
After 48 hours of incubation under the different treatment conditions, the β-defensins 2 and 3 and the LL-present in the cells KB were analysed by an ELISA method on cells. […]
as §6, §7

The subject of a further test is hBD-3. As to the kind of experiment: Induction of hBD-3 in KB epithelial cells, ELISA on cells related to MTT. Type of test: cell-based, human. The conditions noted are these: 48 hours, 100 ng/ml. How it is done:
as §1, §2, §3, §4, §5, §6, §7

The mark [5] stands for this setting: Example 7, commercial origin, 0.0012%.
The mark [6] stands for this setting: Example 7, commercial origin, 0.012%.

Where “and” joins values, the source holds several entries; their conditions need not be identical. Equal entries are not always repeated.

Consider five molecules from patent publication US9023810B2, “Use of a compound comprising D-mannoheptulose and/or perseitol for treating and preventing innate immunity modification diseases” (Laboratories Expanscience, priority 2004, dated 2015).

Take `O=C(CO)[C@@H](O)[C@@H](O)[C@H](O)[C@H](O)CO` [D-mannoheptulose]: in the test on hBD-2 [1] (Example 6, sugars in the proportions of batch A), the “effect on the synthesis of HBD-2 (in words)” value was “more active than the perseitol”. For the same molecule, in the test with hBD-2 [1] (setting [5]), the “Average (hBD-2, same test as in example 3)” value stood at 0.089. Further, the “Average (hBD-2, same test as in example 3)” value with hBD-2 [1] (setting [6]) was determined as 0.089. In the test with hBD-2 [1], the “production of hBD-2 (in words)” value is listed as “capable of inducing the production of hBD-2” and the “Modulation of the synthesis of HBD-2 (% increase with respect to control cells)” value was 31%.

As to `OCC(O)C(O)C(O)C(O)C(O)CO` (stereo not drawn) [Perseitol], in test [2], the “incorporation of leucine-3H into tumorous cells (in words)” value was “enables leucine-3H to be incorporated”. Also, the “Average (hBD-2, same test as in example 3)” value in the test with hBD-2 [1] (setting [5]) is 0.063. The “Average (hBD-2, same test as in example 3)” value in the test with hBD-2 [1] (setting [6]) is recorded as 0.090. Besides, in the test with hBD-2 [1], the “production of hBD-2 (in words)” value is on record as “capable of inducing the production of hBD-2” and the “Modulation of the synthesis of HBD-2 (% increase with respect to control cells)” value turned out to be 12%.

For “IL-1β: positive control of induction of hBD-2, 100 ng/ml”, in the test with hBD-2 [1] (Example 7, positive control), the “Average (hBD-2, same test as in example 3)” value is listed as 0.104. Also, in the test with hBD-2 [1] (keratinocytes, 24 h, 100 ng/ml), the “% increase vs. control” value amounted to 128%; the “hBD-2/MTT (single values)” value is 0.223 OD and 0.324 OD and 0.273 OD and 0.322 OD. Moreover, the “hBD-2/MTT (single values)” value in the test with hBD-2 [3] (24 hours, IL-1β 100 ng/ml) is 0.291 OD and 0.308 OD and 0.347 OD. In addition, the “increase in the synthesis of hBD-2 with respect to the control cells” value with hBD-2 [3] (IL-1β 100 ng/ml) was 80%.

In the case of “IL-4: interleukine-4, mediator of atopy, 50 ng/ml”, in the test on hBD-2 [3] (24 hours, IL-4 50 ng/ml), the “hBD-2/MTT (single values)” value is 0.160 OD and 0.158 OD and 0.163 OD; the “hBD-2/MTT Average” value is recorded as 0.160 +/− 0.002 OD. Further, the “inhibition of the synthesis of hBD-2 induced by IL-1β” value in the test on hBD-2 [3] (IL-4 50 ng/ml with IL-1β 100 ng/ml) is on record as 32%. Moreover, the “influence on the quantity of hBD-2 expressed by the keratinocytes (in words)” value with hBD-2 [3] (IL-4 alone, 50 ng/ml) was “no influence”.

Regarding TNFα, in the test with LL-37, the “Induction of LL-37 % increase” value stood at 88%; the “OD LL-37/OD MTT (wells)” value was 0.080 and 0.072 and 0.077 and 0.091 and 0.082 and 0.076; the “OD LL-37/OD MTT average” value was determined as 0.080. In the test with hBD-2 [4], the “Induction of HBD-2 % increase” value was 239% and the “OD hBD2/OD MTT average” value amounted to 0.037. Moreover, in the test with hBD-3, the “Induction of HBD-3 % increase” value worked out at 30%; the “OD hBD3/OD MTT (wells)” value is 0.431 and 0.448 and 0.399 and 0.407 and 0.374; the “OD hBD3/OD MTT average” value is recorded as 0.410.
